In the SangsterLogP compilation:

Assay: from Kabankin, S.; Boldeskul, E.; Trinus, P.; Protsenko, D.; Landau, A. (1982). Physicochemical characteristics, antitumor activity and quantitative structure-activity relations for phosphoric …
Settings: pH 7.4

SMILES | logD
O=C(NP(=O)(N1CC1)N1CC1)c1ccccc1Br | 0.45
O=C(NP(=O)(N1CC1)N1CC1)c1cccc(Br)c1 | 0.88
O=C(NP(=O)(N1CC1)N1CC1)c1cc(I)cc(I)c1 | 2.52
O=C(NP(=O)(N1CC1)N1CC1)c1ccc(Cl)cc1 | 0.46
O=C(NP(=O)(N1CC1)N1CC1)c1ccccc1 | -0.15
C=CCc1ccc(C(=O)NP(=O)(N2CC2)N2CC2)cc1 | 0.69
C=CCc1cccc(C(=O)NP(=O)(N2CC2)N2CC2)c1 | 0.65
COc1cccc(C(=O)NP(=O)(N2CC2)N2CC2)c1 | 0.04
O=C(NP(=O)(N1CC1)N1CC1)c1cc(I)cc(I)c1I | 0.81
O=C(NP(=O)(N1CC1)N1CC1)c1cc(Br)cc(Br)c1 | 1.15
O=C(NP(=O)(N1CC1)N1CC1)c1ccc(F)cc1 | 0.13
O=C(NP(=O)(N1CC1)N1CC1)c1ccc(I)cc1 | 1.63
CCOc1cccc(C(=O)NP(=O)(N2CC2)N2CC2)c1 | 0.42
COc1ccc(C(=O)NP(=O)(N2CC2)N2CC2)cc1 | -0.02
O=C(NP(=O)(N1CC1)N1CC1)c1cccc(I)c1 | 1.37
